Results from patent US10016376B2, “Composition for alleviating nephrotoxicity caused by immunosuppressive drug, comprising metformin, and composition for preventing or treating immune disease, comprising the same” (THE CATHOLIC UNIVERSITY OF KOREA INDUSTRY-ACADEMIC …, priority 2014, dated 2018).

How the values were obtained:
[1] = blood concentration of FK506 in whole blood (LC/MS/MS); format: in vivo; conditions: Sprague-Dawley, rat, subcutaneous; rats, whole blood after 4 weeks; FK506 1.5 mg/kg s.c., with or without metformin 250 mg/kg oral
Procedure: Thereafter, a blood concentration of FK506 in the collected whole blood was measured using a mass spectrometer (API 3000 LC/MS/MS, Applied Biocystem, Foster City, Calif.).

[2] = test system: allogeneic reactive T cells; assay: mixed lymphocyte reaction (MLR), [3H]-thymidine uptake; format: cell-based, Balb/c; conditions: vs untreated Allo control
Procedure: To examine an immunomodulatory effect when T cells were co-treated with metformin and FK506 under in vitro allo-response conditions, an effect of metformin and FK506 on the proliferation of allogeneic reactive T cells was examined using a mixed lymphocyte culture method (i.e., a mixed lymphocyte reaction (MLR)) (FIG. 3). […] In this case, the T cells were treated separately or together with metformin (200 μM) or FK506 (1 nM or 100 nM) according to the experimental conditions, and then cultured for 3 days to stimulate an allogeneic response. On the last day of culture, [^3H]-thymidine was added, and the T cells were additionally cultured for 18 hours. Then, a level of [^3H]-thymidine uptake was measured using a liquid scintillation counter (Beckman, USA), and expressed as a cpm value. The statistical analysis was carried out using a Graph prism (t-test, ANOVA), and the statistical significance was p<0.05.

[3] = test system: IFN-γ; assay: ELISA of IFN-γ secreted by allogeneic reactive T cells in mixed lymphocyte culture; format: cell-based, Balb/c; conditions: metformin 200 μM, 3 days
Procedure: (§1) To examine an effect of metformin and FK506 on the secretion of inflammatory cytokines by allogeneic reactive T cells, the allogeneic reactive T cells were treated with metformin (200 μM) or FK506 (1 nM or 100 nM) according to the experimental conditions, and then cultured for 3 days under the same in vitro allo-response conditions as in <Example 2>. Thereafter, levels of IFN-γ and IL-17 secreted by the T cells in the resulting culture broth were measured using ELISA (FIG. 5). The statistical analysis was carried out using a Graph prism (t-test, ANOVA), and the statistical significance was p<0.05. […] Thereafter, levels of IFN-γ and IL-17 secreted by the T cells in the resulting culture broth were measured using ELISA (FIG. 6). The statistical analysis was carried out using a Graph prism (t-test, ANOVA), and the statistical significance was p<0.05.

[4] = test system: IL-17; assay: ELISA of IL-17 secreted by allogeneic reactive T cells in mixed lymphocyte culture; format: cell-based, Balb/c; conditions: metformin 200 μM, 3 days
Procedure: as §1

[5] = test system: Treg cells; assay: flow cytometry of Treg activity under anti-CD3 T cell activation conditions; format: cell-based, C57BL/6 mice; conditions: 3 days; for Treg activity (ratio of Foxp3+CD25+ cells to CD4+ T cells): metformin 200 μM, FK506 100 nM, anti-CD3 1 μg/ml
Procedure: An effect of metformin and FK506 on the activity of Treg cells under T cell activation conditions (anti-CD3 conditions) was examined (FIGS. 8A and 8B). Splenocytes obtained from normal C57BL/6 mice were seeded in a 24-well plate at a density of 1×10^6 cells/ml, treated with metformin (200 μM) or FK506 (100 nM) according to the experimental conditions, and then cultured for 3 days under anti-CD3 activation conditions (1 μg/ml). For the analysis using a flow cytometer, the cells were treated with an anti-CD4-percp antibody and an anti-CD25-APC antibody, reacted at 4° C. for 30 minutes, permeabilized, reacted with an anti-Foxp3-PE antibody, and then analyzed using the flow cytometer. To analyze the Treg activity, cells expressing a CD4+CD25+Foxp3 marker were gated and analyzed. For the results, the ratio of Foxp3+CD25+ cells to the whole cultured CD4+ T cells was plotted on a bar graph. The statistical analysis was carried out using a Graph prism (t-test, ANOVA), and the statistical significance was p<0.05.

[6] = test system: TNF-α; assay: TNF-α secreted by LPS-stimulated splenocytes; format: cell-based, C57BL/6 mice; conditions: LPS 100 ng/ml, metformin 200 μM, FK506 100 nM, 3 days; vs control (LPS)
Procedure: (§2) Concentrations of TNF-α and IL-6 present in the resulting culture broth were measured to compare the drug effects (FIG. 10). Also, a concentration of immunoglobulins (IgG) present in the culture broth was measured in the same cell culture conditions to compare the drug effects (FIG. 11). The statistical analysis was carried out using a Graph prism (t-test, ANOVA), and the statistical significance was p<0.05.

[7] = test system: IL-6; assay: IL-6 secreted by LPS-stimulated splenocytes; format: cell-based, C57BL/6 mice; conditions: LPS 100 ng/ml, metformin 200 μM, FK506 100 nM, 3 days; vs control (LPS)
Procedure: as §2

[8] = test system: immunoglobulins (IgG); assay: immunoglobulins (IgG) secreted by LPS-stimulated splenocytes; format: cell-based, C57BL/6 mice; conditions: LPS 100 ng/ml, metformin 200 μM, FK506 100 nM, 3 days; vs control (LPS)
Procedure: as §2

[9] = test system: Splenocytes obtained from normal C57BL/6 mice; assay: MTT assay under T cell activation conditions (anti-CD3); conditions: metformin 200 μM, FK506 100 nM, 3 days, anti-CD3 1 μg/ml; vs control (aCD3)
Procedure: Splenocytes obtained from normal C57BL/6 mice were seeded in a 96-well plate at a density of 2×10^5 cells/ml, treated with metformin (200 μM) or FK506 (100 nM) according to the experimental conditions, and then cultured for 3 days under anti-CD3 activation conditions (1 μg/ml). In the MTT assay, a 3-(4,5dimethyl-thiazol-2-yl)-2,5-diphenyltetrazolium bromide compound was added before 4 hours of cell harvesting, and reacted for 4 hours. Thereafter, each well was treated with DMSO to measure the optical density at a wavelength of 540 nm.

[10] = metformin 200 μM, FK506 1 nM or 100 nM, 3 days

concentration at 4 weeks [1] [ng/mL] | SMILES | proliferation of T cells ([3H]-thymidine uptake) [2, 10] | concentration of IFN-γ in the culture broth ([3]; FK506 1 nM or 100 nM) | concentration of IL-17 in the culture broth ([4]; FK506 1 nM or 100 nM) | Treg activity (ratio of Foxp3+CD25+ cells to CD4+ T cells) [5] | concentration of TNF-α in the culture broth [6] | concentration of IL-6 in the culture broth [7] | concentration of immunoglobulins (IgG) in the culture broth [8] | proliferation of T cells ([3H]-thymidine uptake) ([2]; Met 200 μM or 1,000 μM, CsA 10 nM or 100 nM, co-administered metformin 200 μM) | concentration of IFN-γ in the culture broth ([3]; CsA 10 nM or 100 nM) | concentration of IL-17 in the culture broth ([4]; CsA 10 nM or 100 nM) | cytotoxicity, optical density at 540 nm (MTT) [9] | Treg level/activity (ratio of Foxp3+CD25+ cells to CD4+ T cells) ([5]; metformin 1 mM, CsA 100 nM, anti-CD3)
10.2 ± 1.3 | C=CC[C@@H]1/C=C(\C)C[C@H](C)C[C@H](OC)[C@H]2O[C@@](O)(C(=O)C(=O)N3CCCC[C@H]3C(=O)O[C@H](/C(C)=C/[C@@H]3CC[C@@H](O)[C@H](OC)C3)[C@H](C)[C@@H](O)CC1=O)[C@H](C)C[C@@H]2OC [FK506, Tacrolimus] | remarkably reduced in a concentration-dependent manner | reduced | reduced | increased | not highly reduced | not highly reduced | not significantly changed | – | – | – | – | –
– | CN(C)C(=N)NC(=N)N [metformin, Metformin] | suppressed | reduced | reduced | increased | not highly reduced | not highly reduced | not significantly changed | suppressed | reduced | reduced | no big difference in optical densities | increased
